For the assay, the target named is S. aureus GyrB ATPase (Staphylococcus aureus, UniProt P0A0K8). As to the kind of experiment: S. aureus GyrB ATPase inhibition (ammonium molybdate/malachite green phosphate detection). In kind it is biochemical. The following applies: 1 μM compound, S. aureus GyrB ATPase; for inhibition at 1 µM: read-out: Percent Inhibition (1 μM). On the procedure:
S. aureus GyrB ATPase Inhibition Activity: Compounds may be tested for inhibition of S. aureus GyrB ATPase activity using an ammonium molybdate/malachite green-based phosphate detection assay (Lanzetta, P. A., L. J. Alvarez, P. S. Reinach, and O. A. Candia, 1979, 100: 95-97). Assays can be performed in multiwell plates in 30 μl reactions containing: 50 mM Hepes buffer pH 7.5, 75 mM ammonium acetate, 8.0 mM magnesium chloride, 0.5 mM ethylenediaminetetraacetic acid, 5% glycerol, 1.0 mM 1,4-Dithio-DL-threitol, 200 nM bovine serum albumin, 1.0 μg/ml sheared salmon sperm DNA, 250 pM E. coli GyrA, 250 pM S. aureus GyrB, 250 μM ATP, and compound in dimethylsulfoxide. Reactions can be quenched with 30 μl of ammonium molybdate/malachite green detection reagent containing 1.2 mM malachite green hydrochloride, 8.5 mM ammonium molybdate tetrahydrate, and 1 M hydrochloric acid. Plates can be read in an absorbance plate reader at 650 nm and percent inhibition values can be calculated using dimethylsulfoxide (2%)-containing reactions as 0% inhibition and EDTA-containing ([…]) reactions as 100% inhibition controls. An IC50 measurement of compound potency for each compound can be determined from reactions performed in the presence of 10 different compound concentrations.

Sequence of S. aureus GyrB ATPase (P0AES4 whole entry): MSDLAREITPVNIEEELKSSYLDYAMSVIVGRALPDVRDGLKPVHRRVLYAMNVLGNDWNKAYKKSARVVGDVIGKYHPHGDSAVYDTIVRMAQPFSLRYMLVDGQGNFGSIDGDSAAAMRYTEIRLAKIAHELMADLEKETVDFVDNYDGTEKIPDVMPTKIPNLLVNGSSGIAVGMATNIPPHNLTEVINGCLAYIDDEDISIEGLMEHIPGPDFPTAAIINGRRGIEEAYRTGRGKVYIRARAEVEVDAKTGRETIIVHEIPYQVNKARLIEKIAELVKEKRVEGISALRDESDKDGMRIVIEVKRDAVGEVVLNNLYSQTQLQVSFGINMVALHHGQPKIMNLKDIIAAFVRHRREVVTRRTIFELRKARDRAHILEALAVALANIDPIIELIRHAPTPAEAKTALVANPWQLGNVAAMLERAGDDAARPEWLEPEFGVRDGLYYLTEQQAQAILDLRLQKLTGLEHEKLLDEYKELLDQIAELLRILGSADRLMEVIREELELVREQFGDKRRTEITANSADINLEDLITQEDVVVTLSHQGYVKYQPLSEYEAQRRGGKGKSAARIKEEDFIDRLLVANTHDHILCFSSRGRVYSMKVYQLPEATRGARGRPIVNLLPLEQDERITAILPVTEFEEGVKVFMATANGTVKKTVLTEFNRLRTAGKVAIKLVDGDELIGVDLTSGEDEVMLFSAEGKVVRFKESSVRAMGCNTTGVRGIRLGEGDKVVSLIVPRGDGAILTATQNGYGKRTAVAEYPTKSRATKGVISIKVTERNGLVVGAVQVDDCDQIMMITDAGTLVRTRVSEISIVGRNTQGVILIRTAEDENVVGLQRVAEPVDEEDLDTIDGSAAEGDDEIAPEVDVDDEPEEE
Sequence of S. aureus GyrB ATPase (P0A0K8 whole entry): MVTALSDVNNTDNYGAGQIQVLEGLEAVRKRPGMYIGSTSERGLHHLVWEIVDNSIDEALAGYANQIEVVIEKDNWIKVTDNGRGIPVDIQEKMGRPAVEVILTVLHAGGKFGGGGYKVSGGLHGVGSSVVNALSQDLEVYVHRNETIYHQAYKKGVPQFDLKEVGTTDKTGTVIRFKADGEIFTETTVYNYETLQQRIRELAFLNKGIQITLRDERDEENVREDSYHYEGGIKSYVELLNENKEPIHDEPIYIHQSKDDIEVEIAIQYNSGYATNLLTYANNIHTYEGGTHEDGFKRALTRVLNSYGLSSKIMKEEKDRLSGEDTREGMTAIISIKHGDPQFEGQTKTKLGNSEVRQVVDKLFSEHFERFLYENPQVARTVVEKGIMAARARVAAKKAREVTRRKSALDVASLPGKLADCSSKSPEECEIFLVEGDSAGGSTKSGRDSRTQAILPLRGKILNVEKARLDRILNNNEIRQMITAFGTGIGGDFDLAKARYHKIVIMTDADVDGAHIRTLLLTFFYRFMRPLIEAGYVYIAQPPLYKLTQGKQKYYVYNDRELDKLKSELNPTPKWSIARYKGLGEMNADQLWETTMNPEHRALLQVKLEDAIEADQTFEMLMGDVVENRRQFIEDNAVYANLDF

`CCNC(=O)Nc1cc(-c2nc(C(F)(F)F)cs2)c(-c2cc3c(=O)c(C(=O)O)cn(C[C@@H]4CCCN4CC)c3nc2NCCN(C)C)cn1` [Example 36, 7-(2-(dimethylamino)ethylamino)-1-(((S)-1-ethylpyrrolidin-2-yl)methyl)-6-(6-(3-ethylureido)-4-(4-(trifluoromethyl)thiazol-2-yl)pyridin-3-yl)-4-oxo-1,4-dihydro-1,8-naphthyridine-3-carboxylic acid]: the inhibition – broadly, the drop in the measured response relative to a control, in per cent – at 1 µM worked out at 100%.
Still for that read-out and setting: under `CCNC(=O)Nc1cc(-c2nc(C(F)(F)F)cs2)c(-c2cc3c(=O)c(C(=O)O)cn(CC)c3nc2NCCN(C)C)cn1` [Example 37, 7-(2-(dimethylamino)ethylamino)-1-ethyl-6-(6-(3-ethylureido)-4-(4-(trifluoromethyl)thiazol-2-yl)pyridin-3-yl)-4-oxo-1,4-dihydro-1,8-naphthyridine-3-carboxylic acid] stands 109%; under `CCNC(=O)Nc1cc(-c2nc(C(F)(F)F)cs2)c(-c2cc3c(=O)c(C(=O)O)cn(CC)c3nc2N2CCN(C)CC2)cn1` [Example 38, 1-ethyl-6-(6-(3-ethylureido)-4-(4-(trifluoromethyl)thiazol-2-yl)pyridin-3-yl)-7-(4-methylpiperazin-1-yl)-4-oxo-1,4-dihydro-1,8-naphthyridine-3-carboxylic acid], 101%; under `CCNC(=O)Nc1cc(-c2nc(C(F)(F)F)cs2)c(-c2cc3c(=O)c(C(=O)O)cn(C4CCCCC4)c3cn2)cn1` [Example 39, 1-cyclohexyl-6-(6-(3-ethylureido)-4-(4-(trifluoromethyl)thiazol-2-yl)pyridin-3-yl)-4-oxo-1,4-dihydro-1,7-naphthyridine-3-carboxylic acid], 102%.
The same measure, in the same setting: the same measure for `CCNC(=O)Nc1cc(-c2nc(C(F)(F)F)cs2)c(-c2cc3c(=O)c(C(=O)O)cn(CCC(C)(C)C)c3cn2)cn1` [Example 40]: 103%.
On the same count and under the same terms, under `CCNC(=O)Nc1cc(-c2nc(C(F)(F)F)cs2)c(-c2cc3c(=O)c(C(=O)O)cn(C[C@H]4CCCN4CC)c3cn2)cn1` [Example 41] stands 102%.
On to `CCNC(=O)Nc1cc(-c2nc(C(F)(F)F)cs2)c(-c2cc3c(=O)c(C(=O)O)cn(C[C@@H]4CCCN4CC)c3cn2)cn1` [Example 42], for which the inhibition at 1 µM worked out at 103%.
Same read-out and setting: under `CCNC(=O)Nc1cc(-c2nc(C(F)(F)F)cs2)c(-c2cc3c(=O)c(C(=O)O)cn(CC(C)N4CCOCC4)c3cn2)cn1` (stereo not drawn) [Example 43] stands 94%; under `CCNC(=O)Nc1cc(-c2nc(C(F)(F)F)cs2)c(-c2cc3c(=O)c(C(=O)O)cn(C(COC)COC)c3cn2)cn1` [Example 44], 102%; under `CCNC(=O)Nc1cc(-c2nc(C(F)(F)F)cs2)c(-c2cc3c(=O)c(C(=O)O)cn([C@H](CO)CC(C)C)c3cn2)cn1` [Example 45], 107%.
Still for that read-out and setting: the same measure for `CCNC(=O)Nc1cc(-c2nc(C(F)(F)F)cs2)c(-c2cc3c(=O)c(C(=O)O)cn(CCOC)c3cn2)cn1` [Example 46]: 106%; for `CCNC(=O)Nc1cc(-c2nc(C(F)(F)F)cs2)c(-c2cc3c(=O)c(C(=O)O)cn(CCN(C)C)c3cn2)cn1` [Example 47]: 98%.
As for `CCNC(=O)Nc1cc(-c2nc(C(F)(F)F)cs2)c(-c2cc3c(=O)c(C(=O)O)cn([C@H]4CCCN(CCN5CCOCC5)C4)c3cn2)cn1` [Example 48], the inhibition at 1 µM was determined as 101%.
As to `CCNC(=O)Nc1cc(-c2nc(C(F)(F)F)cs2)c(-c2cc3c(=O)c(C(=O)O)cn([C@@H]4CCCN(CCN5CCOCC5)C4)c3cn2)cn1` [Example 49], the inhibition at 1 µM came to 98%.
Still for that read-out and setting: under `CCNC(=O)Nc1cc(-c2nc(C(F)(F)F)cs2)c(-c2cc3c(=O)c(C(=O)O)cn(Cc4cn(C)cn4)c3cn2)cn1` [Example 50] stands 99%.
Still for that read-out and setting: under `CCNC(=O)Nc1cc(-c2nc(C(F)(F)F)cs2)c(-c2cc3c(=O)c(C(=O)O)cn(Cc4cnn(C)c4)c3cn2)cn1` [Example 51, 6-(6-(3-ethylureido)-4-(4-(trifluoromethyl)thiazol-2-yl)pyridin-3-yl)-1-((1-methyl-1H-pyrazol-4-yl)methyl)-4-oxo-1,4-dihydro-1,7-naphthyridine-3-carboxylic acid] stands 102%.
As for `CCNC(=O)Nc1cc(-c2nc(C(F)(F)F)cs2)c(-c2cc3c(=O)c(C(=O)O)cn([C@H]4CCCN(CCN(CC)CC)C4)c3cn2)cn1` [Example 52, (5)-1-(1-(2-(diethylamino)ethyl)piperidin-3-yl)-6-(6-(3-ethylureido)-4-(4-(trifluoromethyl)thiazol-2-yl)pyridin-3-yl)-4-oxo-1,4-dihydro-1,7-naphthyridine-3-carboxylic acid], the “Percent Inhibition (1 μM)” value is listed as 105%.
As to `CCNC(=O)Nc1cc(-c2nc(C(F)(F)F)cs2)c(-c2cc3c(=O)c(C(=O)O)cn([C@@H]4CCCN(CCN(CC)CC)C4)c3cn2)cn1` [Example 53], the inhibition at 1 µM stood at 103%.
The same measure, in the same setting: the same measure for `CCNC(=O)Nc1cc(-c2nc(C(F)(F)F)cs2)c(-c2cnc3c(c2)c(=O)c(C(=O)O)cn3[C@@H]2CCCN(CCN(CC)CC)C2)cn1` [Example 54]: 106%; for `CCNC(=O)Nc1cc(-c2nc(C(F)(F)F)cs2)c(-c2cnc3c(c2)c(=O)c(C(=O)O)cn3C(COC)COC)cn1` [Example 55]: 103%.
Still for that read-out and setting: the same measure for `CCNC(=O)Nc1cc(-c2nc(C(F)(F)F)cs2)c(-c2cnc3c(c2)c(=O)c(C(=O)O)cn3CCN2CCOCC2)cn1` [Example 56]: 101%.
Still for that read-out and setting: the same measure for `CCNC(=O)Nc1cc(-c2nc(C(F)(F)F)cs2)c(-c2cnc3c(c2)c(=O)c(C(=O)O)cn3C2CN(C)C2)cn1` [Example 57]: 107%; for `CCNC(=O)Nc1cc(-c2nc(C(F)(F)F)cs2)c(-c2cc3c(=O)c(C(=O)O)cn(C[C@@H]4CCCN4CC)c3nc2N2CCN(C)CC2)cn1` [Example 58]: 104%; for `CCNC(=O)Nc1cc(-c2nc(C(F)(F)F)cs2)c(-c2cc3c(=O)c(C(=O)O)cn([C@H](CO)C(C)(C)C)c3nc2N2CCN(C)CC2)cn1` [Example 59, (S)-6-(6-(3-ethylureido)-4-(4-(trifluoromethyl)thiazol-2-yl)pyridin-3-yl)-1-(1-hydroxy-3,3-dimethylbutan-2-yl)-7-(4-methylpiperazin-1-yl)-4-oxo-1,4-dihydro-1,8-naphthyridine-3-carboxylic acid]: 108%.
With `CCNC(=O)Nc1cc(-c2nc(C(F)(F)F)cs2)c(-c2cc3c(=O)c(C(=O)O)cn(CCN4CCN(C)CC4)c3nc2N2CC[C@@H](CN)C2)cn1` [Example 60], the inhibition at 1 µM is 101%.
Still for that read-out and setting: the same measure for `CCNC(=O)Nc1cc(-c2nc(C(F)(F)F)cs2)c(-c2cc3c(=O)c(C(=O)O)cn(CCN4CCN(C)CC4)c3nc2N2CC[C@H](N)C2)cn1` [Example 61]: 103%; for `CCNC(=O)Nc1cc(-c2nc(-c3ccccc3)cs2)c(-c2cc3c(=O)c(C(=O)O)cn([C@H]4CCCN(CCN5CCOCC5)C4)c3cn2)cn1` [Example 63]: 105%; for `CCNC(=O)Nc1cc(-c2nc(-c3ccccc3)cs2)c(-c2cc3c(=O)c(C(=O)O)cn([C@@H]4CCCN(CCN5CCOCC5)C4)c3cn2)cn1` [Example 64]: 100%.
Same read-out and setting: under `CCNC(=O)Nc1cc(-c2nc(-c3ccccc3)cs2)c(-c2cc3c(=O)c(C(=O)O)cn(Cc4cn(C)cn4)c3cn2)cn1` [Example 65] stands 98%; under `CCNC(=O)Nc1cc(-c2nc(C(F)(F)F)cs2)c(-c2cc3c(=O)c(C(=O)O)cn(C(C)(C)C)c3cn2)cn1` [Example 66], 106%; under `CCNC(=O)Nc1cc(-c2nc(C(F)(F)F)cs2)c(-c2cc3c(=O)c(C(=O)O)cn(CCN4CCCC4)c3cn2)cn1` [Example 67], 93%.
Same read-out and setting: under `CCNC(=O)Nc1cc(-c2nc(C(F)(F)F)cs2)c(-c2cc3c(=O)c(C(=O)O)cn(CC)c3cn2)cn1` [Example 68] stands 110%.
Regarding `CCNC(=O)Nc1cc(-c2nc(C(F)(F)F)cs2)c(-c2cc3c(=O)c(C(=O)O)cn(CCN4CCOCC4)c3cn2)cn1` [Example 69], the inhibition at 1 µM is 103%.
The same measure, in the same setting: under `CCNC(=O)Nc1cc(-c2nc(C(F)(F)F)cs2)c(-c2cc3c(=O)c(C(=O)O)cn(C4CN(C)C4)c3cn2)cn1` [Example 70] stands 102%; under `CCNC(=O)Nc1cc(-c2nc(C(F)(F)F)cs2)c(-c2cc3c(=O)c(C(=O)O)cn([C@H](CO)C(C)(C)C)c3cn2)cn1` [Example 71], 103%; under `CCNC(=O)Nc1cc(-c2nc(C(F)(F)F)cs2)c(-c2cc3c(=O)c(C(=O)O)cn(Cc4ccncc4)c3cn2)cn1` [Example 72], 105%.
For `CCCN1CC[C@H](Cn2cc(C(=O)O)c(=O)c3cc(-c4cnc(NC(=O)NCC)cc4-c4nc(C(F)(F)F)cs4)ncc32)C1` [Example 73], the inhibition at 1 µM amounted to 108%.
`CCNC(=O)Nc1cc(-c2nc(C(F)(F)F)cs2)c(-c2cc3c(=O)c(C(=O)O)cn(C[C@@H]4CCN(CC)C4)c3cn2)cn1` [Example 74]: the inhibition at 1 µM is 100%.
As to `CCNC(=O)Nc1cc(-c2nc(-c3cnn(C)c3)cs2)c(-c2cc3c(=O)c(C(=O)O)cn(C4CC4)c3cn2)cn1` [Example 75], the inhibition at 1 µM was 108%.
